Measurements reported in PubChem BioAssay (NCI).
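48-hour exposure; five concentrations; linearly interpolated endpoints. Abbreviation: GI50, concentration required for 50% inhibition of growth. TGI: concentration producing complete growth inhibition.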

Columns and labels:
Experiment in all cases: growth of human tumour cells (NCI), 48 h
SNB-75 CNS = system: SNB-75 CNS
SK-MEL-28 melanoma = system: SK-MEL-28 melanoma
NCI-H522 lung = system: NCI-H522 lung
NCI-H23 lung = system: NCI-H23 lung
RPMI-8226 leukemia = system: RPMI-8226 leukemia
A549 NSCLC = system: A549 NSCLC
TK-10 renal = system: TK-10 renal
NCI-H226 lung = system: NCI-H226 lung
HCC-2998 colon = system: HCC-2998 colon
A498 renal = system: A498 renal

SMILES | TGI (SNB-75 CNS) [µM] | TGI (SK-MEL-28 melanoma) [µM] | TGI (NCI-H522 lung) [µM] | TGI (NCI-H23 lung) [µM] | TGI (RPMI-8226 leukemia) [µM] | TGI (A549 NSCLC) [µM] | TGI (TK-10 renal) [µM] | TGI (NCI-H226 lung) [µM] | TGI (HCC-2998 colon) [µM] | TGI (A498 renal) [µM] | GI50 (NCI-H226 lung) [µM] | GI50 (SNB-75 CNS) [µM] | GI50 (HCC-2998 colon) [µM] | GI50 (SK-MEL-28 melanoma) [µM] | GI50 (NCI-H522 lung) [µM] | GI50 (NCI-H23 lung) [µM] | GI50 (A498 renal) [µM] | GI50 (RPMI-8226 leukemia) [µM] | GI50 (A549 NSCLC) [µM] | GI50 (TK-10 renal) [µM]
O=C1C(Cl)N(c2ccccc2Cl)C1c1c[nH]c2ccccc12 (stereo not given) | > 100 | > 100 | > 100 | > 100 | > 100 | > 100 | > 100 |  |  |  |  |  |  |  |  |  |  |  |  | 
Oc1ccc(C(=C(Br)c2ccccc2)c2ccc(O)cc2)cc1 |  | 24 | 17.6 | 23.7 | 96.1 | 19.4 | 31.8 | 33 | 21.2 | 34.2 |  |  |  |  |  |  |  |  |  | 
CN1C(=O)CC(=O)N1/C(=C/c1ccccc1)c1ccccc1 | > 100 | > 100 |  | > 100 | > 100 | > 100 | 91.9 | > 100 | > 100 |  |  |  |  |  |  |  |  |  |  | 
O=C1c2cc3c(cc2-c2c1c1ccc(Cl)cc1c(=O)n2C[C@H](O)CO)OCO3 | 1.1 | 1.28 | 1.82 | 0.714 | 0.54 | 0.72 | 1.76 | 0.165 | 0.701 | 0.16 | 0.0296 | 0.0245 | 0.122 | 0.2 | 0.0422 | 0.0366 | 0.0387 | 0.0429 | 0.0568 | 0.277
CSCCC(C(=O)O)N(C)C (stereo not given) | > 100 | > 100 | > 100 | > 100 | > 100 | > 100 | > 100 | > 100 |  | > 100 |  |  |  |  |  |  |  |  |  | 
O=C1c2cc(O)c(O)cc2O[C@H](c2ccc(O)c(O)c2)[C@H]1O | > 100 | > 100 | > 100 | > 100 | > 100 | > 100 | > 100 | > 100 | > 100 | > 100 |  |  |  |  |  |  |  |  |  | 
C=C(C#N)C(=O)OCC(CC)CC.C=C(C#N)C(=O)OCC(CC)CC.CS(C)=O.CS(C)=O.Nc1c(N=Nc2ccc(-c3ccc(N=Nc4cc(S(=O)(=O)[O-])c5ccccc5c4N)cc3)cc2)cc(S(=O)(=O)[O-])c2ccccc12.[Pt+2] | > 100 | 43 | 19.3 | > 100 | > 80.8 | > 100 |  | > 74.1 | > 100 | > 100 | 36.8 | 65.4 | 48.9 | 21.7 | 13.7 | 40.7 | > 71.4 | 26.9 | > 86.8 | 
C=CCNC(=O)C(C)C1CCC2(C)C=CC(=O)C(C)=C2C1O (stereo not given) | > 100 | > 100 | > 100 | > 100 | > 100 | > 100 |  | > 100 | > 100 | > 100 |  |  |  |  |  |  |  |  |  | 
